Measurements taken from ChEMBL document CHEMBL3430912, “GSK Tres Cantos Anti-Kinetoplastid Screening (TCAKS) Data”.

How the values were obtained:
Trypanosoma cruzi [1] = assay: GSK_TCAKS: pIC50 Trypanosoma cruzi Imaging: Amastigotes/Cell. […] Cells were then washed once with PBS before infection. T. cruzi trypomastigotes, collected at days 5 to 8 after infection from LLC-MK2 parasite infected cultures, were allowed to swim out for 4h at 37C from a centrifuged pellet (2,500 rpm/10 min/room temperature). Trypomastigotes were then collected and counted in a CASY Cell Counter. Trypomastigotes, in supplemented DMEM, were added to H9c2 cultures in a multiplicity of infection of 1 and incubated for 18 h. Cells were washed once with PBS before incubation of the infected H9c2 monolayer with trypsin (Life-Technologies) to detach cells from the flask. Cells were counted in a CASY Cell Counter using a 150 um capillary and their density set at 5 * 10^4 cells per mL in supplemented assay DMEM. Infected H9c2 were dispensed into 384-well poly-lysine coated assay plates at 50uL per well using a Multidrop Combi dispenser. After seeding them, the plates were incubated at 37C, 5% CO2 for 72h. Cultures were then fixed and stained by addition of 50 uL of a solution containing 8% formaldehyde and 4 uM DRAQ5 DNA dye (BioStatus, UK) per well. […] Five images were collected per well for reliable statistical analysis. Automated image analysis was performed with a script developed on Acapella High Content Imaging and Analysis Software (PerkinElmer). Output: number of amastigotes per cell as infection level measurement.; format: functional, organism-based, Rattus norvegicus; settings: H9c2, 4 h
Leishmania donovani [2] = assay: GSK_TCAKS: pIC50 Leishmania donovani viability assay using fluorescence intensity. Assay plates (1536-well) were prepared by adding 30nL per well of compound. For single shot assay, the final compound concentration was 5uM. […] Briefly, eGFP LdBOB axenic amastigotes were harvested, fixed and counted in a CASY cell counter (Roche-Applied Science). A final concentration of 1.5 * 10^5 cells per well were prepared in amastigote media containing 500 U/mL penicillin/streptomycin (Invitrogen) and 6uL was dispensed to each experimental well using a Multidrop Combi dispenser (Thermo Scientific). 6uL of assay media was dispensed to control columns used as reference for 100% compound response. Following incubation for 72 h at 37C, 5% CO2, 2 uL of resazurin was added to each well at a final concentration of 0.5 mM in phosphate buffered saline (PBS) with IGEPAL (Sigma-Aldrich), 0.05% (v/v).; format: functional, organism-based
Trypanosoma cruzi [3] = assay: (§1) GSK_TCAKS: pIC50 Trypanosoma cruzi Imaging: Infected Cells. […] Cells were then washed once with PBS before infection. T. cruzi trypomastigotes, collected at days 5 to 8 after infection from LLC-MK2 parasite infected cultures, were allowed to swim out for 4h at 37C from a centrifuged pellet (2,500 rpm/10 min/room temperature). Trypomastigotes were then collected and counted in a CASY Cell Counter. Trypomastigotes, in supplemented DMEM, were added to H9c2 cultures in a multiplicity of infection of 1 and incubated for 18 h. Cells were washed once with PBS before incubation of the infected H9c2 monolayer with trypsin (Life-Technologies) to detach cells from the flask. Cells were counted in a CASY Cell Counter using a 150 um capillary and their density set at 5 * 10^4 cells per mL in supplemented assay DMEM. Infected H9c2 were dispensed into 384-well poly-lysine coated assay plates at 50uL per well using a Multidrop Combi dispenser. After seeding them, the plates were incubated at 37C, 5% CO2 for 72h. Cultures were then fixed and stained by addition of 50 uL of a solution containing 8% formaldehyde and 4 uM DRAQ5 DNA dye (BioStatus, UK) per well. […] Five images were collected per well for reliable statistical analysis. Automated image analysis was performed with a script developed on Acapella High Content Imaging and Analysis Software (PerkinElmer). Output: percentage of infected cells per well as a second infection marker.; format: functional, organism-based, Rattus norvegicus; settings: H9c2, 4 h
[4] = target: Sterol 14-alpha demethylase (Trypanosoma cruzi (strain CL Brener), UniProt Q7Z1V1); assay: GSK_TCAKS: pIC50 CYP51 from Trypanosoma cruzi.; format: functional
Sterol 14-alpha demethylase, sequence (Q7Z1V1 whole entry): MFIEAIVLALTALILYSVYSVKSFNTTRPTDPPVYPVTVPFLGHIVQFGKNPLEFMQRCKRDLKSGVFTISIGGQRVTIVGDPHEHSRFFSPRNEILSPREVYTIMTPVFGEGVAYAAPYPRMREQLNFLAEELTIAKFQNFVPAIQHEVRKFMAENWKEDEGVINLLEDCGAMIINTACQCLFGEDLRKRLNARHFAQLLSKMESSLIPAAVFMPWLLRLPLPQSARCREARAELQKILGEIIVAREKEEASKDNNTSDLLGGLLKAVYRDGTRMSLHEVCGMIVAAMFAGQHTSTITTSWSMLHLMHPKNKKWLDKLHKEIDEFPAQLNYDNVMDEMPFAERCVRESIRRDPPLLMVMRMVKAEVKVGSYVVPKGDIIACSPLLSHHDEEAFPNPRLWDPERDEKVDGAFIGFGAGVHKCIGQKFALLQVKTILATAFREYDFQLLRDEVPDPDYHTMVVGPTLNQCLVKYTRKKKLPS

[5] = system: Trypanosoma brucei brucei; assay: GSK_TCAKS: pIC50 Trypanosoma brucei viability assay using fluorescence intensity. Assay plates (1536-well) were prepared by dispensing 25nL of compound solution per well using an Echo acoustic dispenser (Labcyte).; format: functional, organism-based; settings: Lister 427, 2 h
Trypanosoma cruzi [6] = assay: GSK_TCAKS: pIC50 Trypanosoma cruzi viability assay using beta-GAL activity. This assay was run at single shot at 5uM compound concentration per well. The biological reagents consisted of NIH-3T3 host cells and trypomastigotes parasitic cells; both cell types were set to a 3.3 * 10^5 cells/mL dilution in assay DMEM by means of a CASY cell counter device using a 60um capillary. 6 uL of the mixture were dispensed per well (about 1 * 10^3 host-cells and 1 * 10^3 parasites) with a Multidrop Combi dispenser. […] In all wells, the percentage of DMSO never exceeded 0.5%. Plates incubated for four days at 37C, 5% CO2. The substrate used for the assay fluorescence intensity (FLINT) readout was resorufin-beta-D-galactopiranoside (Sigma-Aldrich) at 5uM per well. It was diluted in PBS supplemented with the soft detergent Igepal (Fluka).; format: functional, organism-based, Mus musculus; settings: Tulahuen, NIH3T3
Leishmania donovani [7] = assay: (§2) GSK_TCAKS: pIC50 Leishmania donovani Imaging: Infected Macrophages. Assay plates (384-well) were prepared by adding 250nL of compound to each well. For single shot assay, the final compound concentration was 5 uM. […] Automated image analysis was performed with a script developed on Acapella High Content Imaging and Analysis Software (PerkinElmer). Output: Percent of infected macrophage cells were reported for each well.; format: functional, organism-based, Homo sapiens; settings: THP-1
Leishmania donovani [8] = assay: as §2, with “THP-1 Host” for “Infected”, “THP-1 cell count” for “Percent of infected macrophage cells”; format: functional, organism-based, Homo sapiens
Leishmania donovani [9] = assay: as §2, with “Amastigotes/Macrophages.” for “Infected Macrophages.”, “Average number” for “Percent”, “amastigotes per” for “infected”, “cell” for “cells”; format: functional, organism-based, Homo sapiens; settings: THP-1
Trypanosoma cruzi [10] = assay: as §1, with “H2C9” for “Trypanosoma cruzi”, “H9c2 Host Cardiomyocytes.” for “Infected Cells.”, “Number” for “percentage”, “H9c2 Host Cardiomyocytes nuclei to determine drug-related cytotoxicity.” for “infected cells per well as a second infection marker.”; format: functional, organism-based, Rattus norvegicus; settings: H9c2, 4 h
[11] = GSK_TCAKS: pIC50 HepG2 human cell line viability assay using luminiscence. […] Seeding density was checked to ensure that new mono-layers were not more than 50% confluent at the time of harvesting. Cell suspension was added to 500 mL of the same medium at a final density of 1.2 * 10^5 cells/mL. This cell suspension was dispensed (25 uL, 3000 cells per well) into 384-well clear-bottom plates using a Multidrop Combi dispenser. Prior to addition of the cell suspension, the screening compounds (250 nL) were pre-dispensed into the plates with an Echo liquid handler. Plates were incubated for 48 h at 37C, 5% CO2. After incubation, plates equilibrated at room temperature for 30 min before proceeding to develop the luminescent signal. The signal developer, CellTiter-Glo Reagent, was allowed to equilibrate at room temperature for 30 min and added to the plates (25uL per well) using a Multidrop Combi dispenser. Plates were left for 10 min at room temperature for stabilization and then read using a ViewLux.; format: toxicity, cell-based
[12] = system: Trypanosoma brucei brucei; assay: GSK_TCAKS: pIC50 Trypanosoma brucei viability assay using luminiscence. Assay plates (1536-well) were prepared. T. brucei cultures were harvested and counted in a CASY cell counter. A parasite suspension was prepared at a final concentration of 5 * 10^4 cells/mL in complete HMI9 medium and 6uL was dispensed to all wells containing compounds using a Multidrop Combi dispenser. 6uL of HMI9 media with 0.4% DMSO were dispensed to control columns. Plates were incubated for 24 h at 37C, 5% CO2 then tempered for 10 min at room temperature. ATP content was quantified by adding 4 uL of CellTiter-Glo Reagent (Promega) according to the manufacturer's instructions. Luminescence was measured using a ViewLux.; format: functional, organism-based; settings: Lister 427, CASY

Row | SMILES | IC50 (Trypanosoma cruzi [1]) [µM] | IC50 (Leishmania donovani [2]) [µM] | IC50 (Trypanosoma cruzi [3]) [µM] | IC50 [4] [µM] | IC50 [5] [µM] | IC50 (Trypanosoma cruzi [6]) [µM] | IC50 (Leishmania donovani [7]) [µM] | IC50 (Leishmania donovani [8]) [µM] | IC50 (Leishmania donovani [9]) [µM] | IC50 (Trypanosoma cruzi [10]) [µM] | IC50 at 48 h [11] [µM] | IC50 [12] [µM]
1 | Cc1ccnc(NS(=O)(=O)c2ccc(NC(=O)c3ccc([N+](=O)[O-])s3)cc2)n1 | 6.31 | 3.98 | 10 | 63.1 | 0.2 | 2 | 10 | 10 | 5.01 | 5.01 | 15.8 | 0.398
2 | COc1cccc(NS(=O)(=O)c2ccc3ncc(C(=O)NCCC(C)C)c(O)c3c2)c1 | 15.8 | > 50.1 | 31.6 | 6.31 | 0.316 | > 50.1 | > 50.1 | > 50.1 | > 50.1 | 12.6 | 31.6 | 0.631
3 | CN1C(=O)c2ccccc2Sc2ccc(NC(=O)NCc3ccco3)cc21 | 6.31 | > 50.1 | 12.6 | 31.6 | 0.398 | 10 | > 50.1 | > 50.1 | 25.1 | 25.1 | > 100 | 0.501
4 | CC(=O)Nc1ccc(-c2ccnc(Nc3cccc(C#N)c3)n2)cc1 | 3.16 | 39.8 | 6.31 | 25.1 | 0.631 | 6.31 | 15.8 | 10 | 10 | 12.6 | > 100 | 0.794
5 | O=C(NCCCn1cnc2ccccc21)c1ccc(NC(=O)c2ccco2)cc1 | 1.26 | 1.26 | 2 | 15.8 | 0.2 | 3.98 | > 50.1 | > 50.1 | 12.6 | > 50.1 | 15.8 | 0.251
6 | CCN(Cc1cccs1)C(=O)CSc1nnc(-c2ccc3c(c2)OCO3)o1 | 1.58 | 3.16 | 2.51 | 7.94 | 25.1 | 3.98 | 2 | > 50.1 | 2 | > 50.1 | > 100 | > 39.8
7 | C=CCN(Cc1cccs1)C(=O)CSc1nnc(-c2ccc3c(c2)OCO3)o1 | 0.501 | 6.31 | 0.631 | 7.94 | 20 | 6.31 | 3.16 | > 50.1 | 1.26 | > 50.1 | > 100 | 39.8
8 | N#Cc1cnc(Nc2cccc(CCN3CCOCC3)c2)nc1Nc1ccccc1C(N)=O | 2 | 2.51 | 3.16 | 10 | 0.0631 | 1.26 | 1.58 | 0.794 | 1 | 0.0126 | 25.1 | 0.251
9 | CCOc1ccc(N(C)S(=O)(=O)c2ccc3[nH]cc(C(=O)NC4CCCC4)c(=O)c3c2)cc1 | 6.31 | > 50.1 | > 50.1 | 6.31 | 0.251 | 7.94 | 31.6 | 25.1 | 31.6 | > 50.1 | 50.1 | 0.501
10 | CCC(=O)N1N=C(c2ccc3c(c2)CCCC3)Sc2c1ncn2C(=O)CC | 12.6 | 25.1 | 20 | > 100 | 15.8 | 6.31 | 3.16 | > 50.1 | 2.51 | > 50.1 | > 100 | 20
11 | Cc1cc(NC(=O)C2CC2)ccc1OC1CCN(Cc2ccco2)CC1 | 20 | > 50.1 | 39.8 | 63.1 | 0.126 | 15.8 | 20 | 12.6 | 12.6 | 39.8 | 50.1 | 0.251
12 | c1ccc(Nc2nc(-c3ccccn3)cc(N3CCOCC3)n2)cc1 | 25.1 | 6.31 | > 50.1 | > 100 | 15.8 | 2 | 2 | > 50.1 | 1.26 | 0.631 | > 100 | 12.6
13 | CCNc1cc(-c2ccccn2)nc(Nc2ccccc2)n1 | 3.16 | 2.51 | 3.16 | > 100 | 25.1 | 0.794 | 0.794 | 20 | 0.631 | 0.251 | 25.1 | 12.6
14 | CCNc1cc(-c2ccccn2)nc(Nc2ccc(OC)cc2)n1 | 2.51 | 1.58 | 3.16 | 39.8 | 12.6 | 0.708 | 0.501 | 25.1 | 0.398 | 0.316 | 39.8 | 10
15 | OCC1CCCCN1c1cc(-c2ccccn2)nc(Nc2ccccc2)n1 (centres undefined) | 2 | 3.16 | 3.98 | 79.4 | 5.01 | 0.794 | 1.26 | 20 | 1 | 0.501 | 31.6 | 6.31
16 | Cc1ccc(Nc2nc(-c3ccccn3)cc(N3CCCC(O)C3)n2)cc1 (centres undefined) | 2.51 | 2 | 6.31 | 25.1 | 3.16 | 0.501 | 0.794 | 25.1 | 0.501 | 0.501 | 39.8 | 3.16
17 | COc1ccc(Nc2nc(-c3ccccn3)cc(N3CCCC(O)C3)n2)cc1 (centres undefined) | 7.94 | 2.51 | 5.01 | 50.1 | 3.98 | 0.631 | 1 | 25.1 | 0.794 | 3.98 | 39.8 | 12.6
